Laboratory results as given in US20090105324A1, “IMIDAZOLE DERIVATIVES FOR USE AS EDG-1 ANTAGONISTS” (AstraZeneca AB, priority 2006, published 2009).

Target: T1, EDG-1/S1P1 receptor (Homo sapiens, UniProt P21453)
T1 construct: expressed in transfected cells; host or cells: U2OS (human osteogenic sarcoma), EDG-1 Transfluor U2OS WT Clone #37
Assay: In Vitro Cell Based Receptor Activation Assay-Transfluor Assay
Settings: EDG-1 Transfluor U2OS WT Clone #37 cells; beta-arrestin GFP relocalization in presence of S1P
Text: This cell-based assay was designed to assess the ability of small molecule antagonists to inhibit activation of the GPCR S1P1 in the presence of its cognate ligand S1P. The assay used technology initially developed by Norak Biosciences (Xsira Pharmaceutical) and presently owned by Molecular Devices. A human osteogenic sarcoma (U2OS) cell line overexpressing the EDG-1/S1P1) receptor as well as a beta-arrestin/green fluorescent protein (GFP) construct hereafter termed EDG-1 Transfluor U2OS WT Clone #37 was employed.
Using a high content screening approach (Cellomics Arrayscan), receptor activity was measured by assessment of the relocalization of beta-arrestin GFP in response to stimulation of EDG-1 by S1P. Specifically, EDG-1 Transfluor U2OS WT Clone #37 cells were plated at a density of 6250 cells in 40 uL medium per well in 384 well plastic bottomed inicrotiter plates (BD Falcon) and incubated overnight at 37° C./5% CO2. Prior to screening, compounds were dissolved in 100% dimethyl sulfoxide (DMSO) to a final stock concentration of 10 mM. Compounds were then serially diluted at 30× final concentration in EDG-1 Transfluor cell growth medium containing 30% DMSO using the Tecan Genesis instrument. […] Plates were then sealed and analysed on the Cellomics Arrayscan using the GPCR signalling algorithm. EC50 values were then calculated using IDBS ActivityBase software.

T1 sequence (P21453 whole entry): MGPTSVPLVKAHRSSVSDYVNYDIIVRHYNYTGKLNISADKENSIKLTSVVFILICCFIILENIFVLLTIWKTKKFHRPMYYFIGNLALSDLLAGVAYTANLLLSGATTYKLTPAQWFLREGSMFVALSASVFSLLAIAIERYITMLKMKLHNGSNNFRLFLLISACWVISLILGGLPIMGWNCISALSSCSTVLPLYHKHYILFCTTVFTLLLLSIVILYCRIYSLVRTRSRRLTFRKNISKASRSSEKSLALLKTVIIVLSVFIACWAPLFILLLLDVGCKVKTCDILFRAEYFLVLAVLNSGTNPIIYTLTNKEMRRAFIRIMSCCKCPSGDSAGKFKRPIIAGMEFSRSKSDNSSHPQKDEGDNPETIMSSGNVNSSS

EC50: 2.12 µM
Compound: Cc1cnc(C(Cc2ccccc2)NS(=O)(=O)c2ccc(Cl)cc2)n1C (stereo not shown) [Example 1, 4-Chloro-N-[1-(1,5-dimethyl-1H-imidazol-2-yl)-2-phenylethyl]benzenesulfonamide]
